Results: PubChem BioAssay (NCI)
“And” between values parts separate entries of the source, which are not always exact repeats. Equal values may be shown once.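 Grown in 96-well plates, cells were treated for 48 hours with each compound at five concentrations. Insufficient inhibition: endpoint recorded as highest concentration tested. Abbreviation: GI50, concentration required for 50% inhibition of growth. The concentration for full growth arrest is given as TGI.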

How the values were obtained:
Experiment in all cases: NCI-60 cell line screen, 48 h
A498 renal = tested on: A498 renal
BT-549 breast = tested on: BT-549 breast
COLO 205 colon = tested on: COLO 205 colon
DU-145 prostate = tested on: DU-145 prostate
K-562 leukemia = tested on: K-562 leukemia
LOX IMVI melanoma = tested on: LOX IMVI melanoma
OVCAR-8 ovarian = tested on: OVCAR-8 ovarian
RXF 393 renal = tested on: RXF 393 renal
SF-295 CNS = tested on: SF-295 CNS
UO-31 renal = tested on: UO-31 renal

Compound	TGI (A498 renal)	TGI (BT-549 breast)	TGI (COLO 205 colon)	TGI (DU-145 prostate)	TGI (K-562 leukemia)	TGI (LOX IMVI melanoma)	TGI (OVCAR-8 ovarian)	TGI (RXF 393 renal)	TGI (SF-295 CNS)	TGI (UO-31 renal)	GI50 (A498 renal)	GI50 (BT-549 breast)	GI50 (COLO 205 colon)	GI50 (DU-145 prostate)	GI50 (K-562 leukemia)	GI50 (LOX IMVI melanoma)	GI50 (OVCAR-8 ovarian)	GI50 (RXF 393 renal)	GI50 (SF-295 CNS)	GI50 (UO-31 renal)
OCCn1cnc2c(SCc3ccccc3)ncnc21	> 100 µM	> 100 µM	> 100 µM	> 100 µM	> 100 µM	> 100 µM	> 100 µM	> 100 µM	> 100 µM	> 100 µM	–	–	–	–	–	–	–	–	–	–
NC(=O)Nc1cc(-c2cccc(F)c2)sc1C(=O)N[C@H]1CCCNC1	0.0984 µM and 0.194 µM	2.05 µM and 1.41 µM	0.937 µM and 0.645 µM	2.07 µM and 3.81 µM	> 10 µM and 10.5 µM	1.04 µM and 1.12 µM	> 3.36 µM and 2.04 µM	0.0255 µM and 0.244 µM	0.776 µM and 2.87 µM	1.79 µM and 1.29 µM	0.0173 µM and 0.0385 µM	0.15 µM and 0.334 µM	0.169 µM and 0.216 µM	0.21 µM and 0.435 µM	0.0949 µM and 0.254 µM	0.0603 µM and 0.199 µM	0.131 µM and 0.318 µM	0.00554 µM and 0.0395 µM	0.0397 µM and 0.0882 µM	0.213 µM and 0.304 µM
CN(C)c1ccc(C(=NO)c2ccc(N(C)C)cc2)cc1	> 100 µM	> 100 µM	22.4 µM	> 100 µM	> 100 µM	> 100 µM	> 100 µM	5.03 µM	–	> 100 µM	2.57 µM	7.34 µM	3.51 µM	4.52 µM	0.418 µM	6.29 µM	3.9 µM	1.46 µM	–	4.73 µM
CC(=O)[O][Sn]([CH2]c1ccccc1)([CH2]c1ccccc1)[CH2]c1ccccc1	9.94 µM	> 10 µM	> 6.79 µM	> 10 µM	> 4.64 µM	> 4.64 µM	> 10 µM	> 4.64 µM	> 6.84 µM	> 10 µM	> 4.95 µM	> 10 µM	> 5.6 µM	> 10 µM	3.4 µM	3.79 µM	> 10 µM	3.98 µM	> 5.52 µM	> 8.79 µM
Cc1cnc(CNC(=O)c2c(=O)c3ccc(N4CCCN(C)CC4)nc3n3c2sc2ccccc23)cn1	25.2 µM	28.4 µM	22.8 µM	6.29 µM	10.6 µM	2.05 µM	21.2 µM	18.9 µM	18.6 µM	21.3 µM	12.2 µM	12.6 µM	1.07 µM	1.03 µM	1.82 µM	0.331 µM	1.09 µM	3.39 µM	1.32 µM	3.03 µM
O=[N+]([O-])c1ccc(N=Nc2ccc(O)c3ccccc23)cc1	86.8 µM	46.7 µM	32.1 µM	> 100 µM	> 100 µM	13.6 µM	> 100 µM	39.4 µM	> 100 µM	> 100 µM	3.32 µM	5.07 µM	13.2 µM	6.66 µM	3.13 µM	2.5 µM	3.1 µM	4.87 µM	9.89 µM	5.42 µM
O=C1C(c2cnc3ccccc3n2)=C(O)c2ccccc21	> 100 µM	> 100 µM	> 56.2 µM	> 100 µM	> 100 µM	> 61.5 µM	> 100 µM	36.1 µM	> 88.1 µM	> 100 µM	–	–	–	–	–	–	–	–	–	–
Cc1ccc(-c2nc3nc(-c4ccccc4)nc(N4CCNCC4)c3o2)cc1	2.97 µM	3.13 µM	0.423 µM	1.73 µM	0.521 µM	0.323 µM	1.19 µM	2.97 µM	1.19 µM	1.01 µM	1.47 µM	1.69 µM	0.208 µM	0.508 µM	0.235 µM	0.177 µM	0.366 µM	1.43 µM	0.589 µM	0.513 µM
COc1ccc(C2=CC(c3ccc(OC)cc3Br)N3C=CSC3=N2)cc1 (stereo not drawn)	32.5 µM	12.1 µM	25.1 µM	33.1 µM	8.26 µM	4.03 µM	27.8 µM	22 µM	38.7 µM	21.2 µM	13.3 µM	3.19 µM	11.3 µM	11.9 µM	2.47 µM	2 µM	4.09 µM	7.67 µM	11.5 µM	7.31 µM
COC(=N)c1c(N)[n+]([O-])c2ccc(F)cc2[n+]1[O-]	> 100 µM	> 100 µM	> 100 µM	> 100 µM	> 100 µM	> 100 µM	> 100 µM	> 100 µM	> 100 µM	> 100 µM	40.4 µM	> 100 µM	61.7 µM	> 100 µM	> 100 µM	> 100 µM	> 100 µM	> 100 µM	> 100 µM	> 100 µM
Cc1ccc(-c2csc(NC(=O)N3CCN(c4cc5c(cc4F)c(=O)c(C(=O)O)cn5C4CC4)CC3)n2)cc1	9.16 µM	2.65 µM	6 µM	> 100 µM	> 100 µM	> 100 µM	7.74 µM	55 µM	28.5 µM	> 100 µM	0.572 µM	0.345 µM	1.92 µM	0.428 µM	0.881 µM	0.362 µM	0.421 µM	0.602 µM	0.762 µM	0.36 µM
COc1cc(OC)c(C(=O)/C=C/c2cccc(C#N)c2)c(OC)c1	3.3 µM	2.5 µM	6.04 µM	6.37 µM	> 50 µM	5.18 µM	6.51 µM	2.05 µM	5.51 µM	4.86 µM	1.24 µM	0.611 µM	1.79 µM	1.47 µM	0.384 µM	1.23 µM	1.47 µM	0.797 µM	1.31 µM	1.13 µM
O=[N+]([O-])c1ccc(N2CCC(CCCC3CCN(c4ccc([N+](=O)[O-])cc4[N+](=O)[O-])CC3)CC2)c([N+](=O)[O-])c1	31.8 µM	71.8 µM	31.8 µM	61.3 µM	55.9 µM	30.2 µM	33.3 µM	35.4 µM	32.3 µM	26.9 µM	–	–	–	–	–	–	–	–	–	–
